Molecular target: T1, human ERK-2 (Mitogen Activated Kinase 1) (Homo sapiens, UniProt P28482)
T1 construct: N-terminal 6-His fusion protein in E. coli and corresponding to aa 8-360; 6-His (N); made in house; host or cells: E. coli
Experiment: ERK-2 Enzymatic Assay
Type: biochemical
Conditions: 5nM ERK-2 enzyme, 25µM ATP, S/T17 peptide substrate, single assay or mean of multiple assays
Description: Compounds were tested in an enzymatic assay using human ERK-2 (Mitogen Activated Kinase 1), recombinantly expressed as an N-terminal 6-His fusion protein in E. coli and corresponding to aa 8-360. The substrate used was the fluorescent Omnia peptide S/T17 (Invitrogen of Carlsbad, CA; Cat. KNZ1171C). Test compounds were diluted in DMSO in 3-fold serial dilutions at 100x final concentrations. […] The assay was run at ambient temperature in a white 384-well polypropylene plate (Nunc, Inc of Naperville, IL; Cat. 267462) collecting data every 50 seconds for approximately 30 minutes on an Envision plate reader (PerkinElmer, Inc. of Waltham, MA); Excitation 340 nm/Emission 495 nm. The data collected from each well was fit to a straight line and the resulting rates were used to calculate percent of control. Percent of control was plotted against compound concentration and IC50 values were determined using a four-parameter fit. Representative data is in TABLE I and TABLE II. The reported IC50 may be from a single assay or the mean of multiple assays.

T1 sequence (P28482 8-360): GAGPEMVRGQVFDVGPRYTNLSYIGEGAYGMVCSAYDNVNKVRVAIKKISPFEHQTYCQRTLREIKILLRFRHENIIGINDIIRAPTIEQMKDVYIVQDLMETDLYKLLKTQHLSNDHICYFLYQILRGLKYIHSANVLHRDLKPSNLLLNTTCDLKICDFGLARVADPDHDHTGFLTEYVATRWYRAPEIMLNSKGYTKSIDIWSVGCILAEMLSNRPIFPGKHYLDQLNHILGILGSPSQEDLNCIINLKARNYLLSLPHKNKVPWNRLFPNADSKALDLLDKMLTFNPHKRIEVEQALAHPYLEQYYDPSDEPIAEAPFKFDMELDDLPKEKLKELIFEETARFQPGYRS

Row | SMILES | IC50 (TABLE I) [nM] | IC50 (TABLE II) [nM]
1 | Cn1cc([C@@H](NC(=O)c2ccc3cnc(N[C@H]4CCO[C@H](CO)C4)nc3c2)c2ccc(Cl)c(F)c2)cn1 [Compound I-42, 2-((2S,4S)-2-hydroxymethyl-tetrahydro-pyran-4-ylamino)-quinazoline-7-carboxylic acid [(S)-(4-chloro-3-fluoro-phenyl)-(1-methyl-1H-pyrazol-4-yl)-methyl]-amide] | 7.2 | –
2 | COc1ccc([C@H](NC(=O)c2ccc3cnc(NC4CCOCC4)nc3c2)c2cnn(C)c2)cc1Cl [Compound I-44, 2-(tetrahydro-pyran-4-ylamino)-quinazoline-7-carboxylic acid [(S)-(3-chloro-4-methoxy-phenyl)-(1-methyl-1H-pyrazol-4-yl)-methyl]-amide] | 1 | –
3 | COc1ccc([C@H](NC(=O)c2ccc3cnc(N[C@H]4CCO[C@H](CO)C4)nc3c2)c2cnn(C)c2)cc1F [Compound I-46, N-((S)-(3-fluoro-4-methoxyphenyl)(1-methyl-1H-pyrazol-4-yl)methyl)-2-((2S,4S)-2-(hydroxymethyl)tetrahydro-2H-pyran-4-ylamino)quinazoline-7-carboxamide] | 4.2 | –
4 | COc1ccc([C@@H](NC(=O)c2ccc3cnc(NC4CCOCC4)nc3c2)c2cnn(C)c2)cc1C#N [Compound I-49, (R)-N-((3-cyano-4-methoxyphenyl)(1-methyl-1H-pyrazol-4-yl)methyl)-2-(tetrahydro-2H-pyran-4-ylamino)quinazoline-7-carboxamide] | 141 | –
5 | COc1ccc([C@H](NC(=O)c2cc(F)c3cnc(NC4CCOCC4)nc3c2)c2cnn(C)n2)cc1F [Compound I-51, (S)-5-Fluoro-N-((3-fluoro-4-methoxyphenyl)(2-methyl-2H-1,2,3-triazol-4-yl)methyl)-2-(tetrahydro-2H-pyran-4-ylamino)quinazoline-7-carboxamide] | 2.8 | –
6 | COc1ccc([C@H](NC(=O)c2cc(F)c3cnc(N[C@H]4CCOC[C@H]4F)nc3c2)c2cnn(C)c2)cc1F [Compound I-52, 5-fluoro-N-((S)-(3-fluoro-4-methoxyphenyl)(1-methyl-1H-pyrazol-4-yl)methyl)-2-((3S,4S)-3-fluorotetrahydro-2H-pyran-4-ylamino)quinazoline-7-carboxamide] | 2.6 | –
7 | COc1ccc(C(NC(=O)c2cc(F)c3cnc(NC4CCOCC4)nc3c2)c2cnn(C)n2)cc1F (centres unmarked) [Compound I-53, 5-Fluoro-2-(tetrahydro-pyran-4-ylamino)-quinazoline-7-carboxylic acid [(3-fluoro-4-methoxy-phenyl)-(2-methyl-2H-[1,2,3]triazol-4-yl)-methyl]-amide] | 6.8 | –
8 | COc1ccc([C@@H](NC(=O)c2cc(F)c3cnc(NC4CCOCC4)nc3c2)c2cnn(C)n2)cc1F [Compound I-54, 5-Fluoro-2-(tetrahydro-pyran-4-ylamino)-quinazoline-7-carboxylic acid [(R)-(3-fluoro-4-methoxy-phenyl)-(2-methyl-2H-[1,2,3]triazol-4-yl)-methyl]-amide] | 31 | –
9 | Cn1cc([C@@H](NC(=O)c2ccc3cnc(NC4CCOCC4)nc3c2)c2ccc(F)c(Cl)c2)cn1 [Compound I-55, 2-(Tetrahydro-pyran-4-ylamino)-quinazoline-7-carboxylic acid [(S)-(3-chloro-4-fluoro-phenyl)-(1-methyl-1H-pyrazol-4-yl)-methyl]-amide] | 2.7 | –
10 | COc1ccc([C@H](NC(=O)c2ccc3cnc(NC4CCOCC4)nc3c2)c2cnn(C)c2)cc1C#N [Compound I-56, 2-(Tetrahydro-pyran-4-ylamino)-quinazoline-7-carboxylic acid [(3-cyano-4-methoxy-phenyl)-(1-methyl-1H-pyrazol-4-yl)-methyl]-amide] | 3.5 | –
11 | COc1ccc([C@H](NC(=O)c2ccc3cnc(N[C@H]4CCO[C@H](COC(C)=O)C4)nc3c2)c2cnn(C)c2)cc1F [Compound I-57, Acetic acid (2S,4S)-4-(7-{[(S)-(3-fluoro-4-methoxy-phenyl)-(1-methyl-1H-pyrazol-4-yl)-methyl]-carbamoyl}-quinazolin-2-ylamino)-tetrahydro-pyran-2-ylmethyl ester] | 24 | –
12 | COCCNc1ncc2c(F)cc(C(=O)N[C@@H](c3ccc(OC)c(F)c3)c3cnn(C)c3)cc2n1 [Compound I-58, 5-Fluoro-2-(2-methoxy-ethylamino)-quinazoline-7-carboxylic acid [(S)-(3-fluoro-4-methoxy-phenyl)-(1-methyl-1H-pyrazol-4-yl)-methyl]-amide] | 20 | –
13 | COc1ccc([C@H](NC(=O)c2cc(F)c3cnc(NCCCF)nc3c2)c2cnn(C)c2)cc1F [Compound I-59, 5-Fluoro-2-(3-fluoro-propylamino)-quinazoline-7-carboxylic acid [(S)-(3-fluoro-4-methoxy-phenyl)-(1-methyl-1H-pyrazol-4-yl)-methyl]-amide] | 15 | –
14 | COc1ccc([C@H](NC(=O)c2cc(F)c3cnc(NCC4COC4)nc3c2)c2cnn(C)c2)cc1F [Compound I-63, 5-Fluoro-2-[(oxetan-3-ylmethyl)-amino]-quinazoline-7-carboxylic acid [(S)-(3-fluoro-4-methoxy-phenyl)-(1-methyl-1H-pyrazol-4-yl)-methyl]-amide] | 4 | –
15 | Cn1cc([C@@H](NC(=O)c2cc(F)c3cnc(NC4CCOCC4)nc3c2)c2ccc(C#N)c(Cl)c2)cn1 [Compound I-65, 5-Fluoro-2-(tetrahydro-pyran-4-ylamino)-quinazoline-7-carboxylic acid [(S)-(3-chloro-4-cyano-phenyl)-(1-methyl-1H-pyrazol-4-yl)-methyl]-amide] | 0.6 | –
16 | COc1ccc([C@H](NC(=O)c2cc(F)c3cnc(NC4CCOCC4)nc3c2)c2cnn(C)c2)cc1Cl [Compound I-66, 5-Fluoro-2-(tetrahydro-pyran-4-ylamino)-quinazoline-7-carboxylic acid [(S)-(3-chloro-4-methoxy-phenyl)-(1-methyl-1H-pyrazol-4-yl)-methyl]-amide] | 0.6 | –
17 | Cn1cc([C@@H](NC(=O)c2cc(F)c3cnc(NC4CCOCC4)nc3c2)c2cccc(F)c2)cn1 [Compound I-68] | 1.3 | –
18 | COc1ccc([C@H](NC(=O)c2cc(F)c3cnc(N[C@@H]4CCOC[C@@H]4F)nc3c2)c2cnn(C)c2)cc1F [Compound I-70] | 4 | –
19 | COc1ccc([C@H](NC(=O)c2cc(F)c3cnc(N[C@H]4C[C@@H](F)C4)nc3c2)c2cnn(C)c2)cc1F [II-33] | – | 3.8

Next, values leading:

Row | IC50 (TABLE I) [nM] | IC50 (TABLE II) [nM] | SMILES
20 | – | 52.8 | COc1ccc([C@H](NC(=O)c2ccc3cnc(NC4CS(=O)(=O)C4)nc3c2)c2cnn(C)c2)cc1F [II-3]
21 | – | 15.7 | COc1ccc([C@@H](NC(=O)c2cc(F)c3cnc(NC4CCOCC4)nc3c2)c2cnn(C)c2)cc1F [II-4]
22 | – | 4.2 | COc1ccc([C@H](NC(=O)c2ccc3cnc(N[C@H]4C[C@@H](O)C4)nc3c2)c2cnn(C)c2)cc1F [II-8]
23 | – | 3.8 | COc1ccc([C@H](NC(=O)c2ccc3cnc(N[C@H]4C[C@H](O)C4)nc3c2)c2cnn(C)c2)cc1F [II-9]
24 | – | 13.8 | COc1ccc([C@H](NC(=O)c2ccc3cnc(NC4CC(OC)C4)nc3c2)c2cnn(C)c2)cc1F (some centres unmarked) [II-10]
25 | – | 13.9 | COc1ccc([C@H](NC(=O)c2cc(F)c3cnc(NCCC#N)nc3c2)c2cnn(C)c2)cc1F [II-11]
26 | – | 1.2 | Cn1cc([C@@H](NC(=O)c2cc(F)c3cnc(NC4CCOCC4)nc3c2)c2cccc(F)c2)cn1 [II-12]
27 | – | 153 | COc1ccc([C@H](NC(=O)c2cc(F)c3cnc(NC4CCOCC4)nc3c2)c2cnn(C)c2)nc1 [II-14]
28 | – | 4.3 | COc1ccc([C@H](NC(=O)c2cc(F)c3cnc(N[C@@H]4CCOC[C@@H]4F)nc3c2)c2cnn(C)c2)cc1F [II-15]
29 | – | 2.1 | COc1ccc([C@H](NC(=O)c2ccc3cnc(Nc4ccnn4C)nc3c2)c2cnn(C)c2)cc1F [II-16]
30 | – | 4.8 | COc1ccc([C@H](NC(=O)c2ccc3cnc(Nc4ccnc(C)c4)nc3c2)c2cnn(C)c2)cc1F [II-17]
31 | – | 6.8 | COc1ccc([C@H](NC(=O)c2cc(F)c3cnc(Nc4cn(C)nc4C)nc3c2)c2cnn(C)c2)cc1F [II-19]
32 | – | 2.3 | COc1ccc([C@H](NC(=O)c2cc(F)c3cnc(N[C@@H](C)CO)nc3c2)c2cnn(C)c2)cc1F [II-21]
33 | – | 7 | COc1ccc([C@H](NC(=O)c2cc(F)c3cnc(NC4CCOCC4)nc3c2)c2cnn(C)c2)cc1 [II-22]
34 | – | 10.8 | COc1ccc([C@H](NC(=O)c2cc(F)c3cnc(Nc4ccnn4C)nc3c2)c2cnn(C)c2)cc1F [II-23]
35 | – | 14.6 | Cc1cc(Nc2ncc3ccc(C(=O)N[C@@H](c4ccc(Cl)c(F)c4)c4cnn(C)c4)cc3n2)n(C)n1 [II-24]
36 | – | 5.6 | C[C@@H](CO)Nc1ncc2c(F)cc(C(=O)N[C@@H](c3cccc(F)c3)c3cnn(C)c3)cc2n1 [II-26]
37 | – | 960 | COc1ccc([C@H](NC(=O)c2ccc3cnc(Nc4cn(C)nc4C)nc3c2)c2cnn(C)c2)cc1F [II-27]
38 | – | 3 | COc1ccc([C@H](NC(=O)c2ccc3cnc(NC4CCOCC4)nc3c2)c2ccnn2C)cc1F [II-28]
39 | – | 2.2 | COc1ccc([C@H](NC(=O)c2cc(F)c3cnc(NC4CCOCC4)nc3c2)c2ccnn2C)cc1F [II-29]
40 | – | 1000 | COc1ccc([C@H](NC(=O)c2ccc3cnc(N[C@H]4C[C@H]5C[C@@H]4CO5)nc3c2)c2cnn(C)c2)cc1F [II-30]
41 | – | 15 | COCC(C)Nc1ncc2ccc(C(=O)N[C@@H](c3ccc(OC)c(F)c3)c3cnn(C)c3)cc2n1 (some centres unmarked) [II-31]

Source: EP2739618B1, “QUINAZOLINE COMPOUNDS AS SERINE/THREONINE KINASE INHIBITORS” (Array Biopharma, Inc., priority 2011, dated 2013)
